Experimental findings from US10071967B2, “N-cycloalkyl-N-{[2-(1-substitutedcycloalkyl)phenyl]methylene}-(thio)carboxamide derivatives” (BAYER CROPSCIENCE AKTIENGESELLSCHAFT, priority 2013, dated 2018) are described below.

Usually logP stands for a log measure of how a compound divides between an organic and an aqueous phase. Low values mean a more hydrophilic compound, high ones a more lipophilic compound.

A short description of the first data set: log P by HPLC on a reversed-phase column (C 18), EEC Directive 79/831 Annex V.A8. The data set is classed as physicochemical. Particulars: HPLC reversed-phase C 18, 40° C., 0.1% aqueous formic acid and acetonitrile, gradient 10% to 90% acetonitrile. The procedure: In table 1, the log P values were determined in accordance with EEC Directive 79/831 Annex V.A8 by HPLC (High Performance Liquid Chromatography) on a reversed-phase column (C 18), using the method described below: Temperature: 40° C.; Mobile phases: 0.1% aqueous formic acid and acetonitrile; linear gradient from 10% acetonitrile to 90% acetonitrile. Calibration was carried out using unbranched alkan-2-ones (comprising 3 to 16 carbon atoms) with known log P values (determination of the log P values by the retention times using linear interpolation between two successive alkanones). lambda-max-values were determined using UV-spectra from 200 nm to 400 nm and the peak values of the chromatographic signals.
`Cn1cc(C(=S)N(Cc2cc(F)ccc2C2(C(F)(F)F)CC2)C2CC2)c(C(F)F)n1` [Example 1.152] displayed a logP of 3.94. Molecule `COCC1(c2ccc(C)cc2CN(C(=O)c2cc(C)oc2C)C2CC2)CC1` [Example 1.155] yielded a logP of 4.03. In the case of `Cn1cc(C(=O)N(Cc2cc(Cl)c(Cl)cc2C2(C)CC2)C2CC2)c(C(F)F)n1` [Example 1.163], the logP is on record as 4.28. Molecule `Cc1nn(C)c(Cl)c1C(=O)N(Cc1cc(Cl)c(Cl)cc1C1(C)CC1)C1CC1` [Example 1.161] returned a logP of 4.61.

`Cc1cc(C(=O)N(Cc2cc(F)ccc2C2(C(F)(F)F)CC2)C2CC2)c(C)o1` [Example 1.151]: the logP is 4.44.

The same data set, now with this note: HPLC, reversed-phase column (C 18), 40° C.; 0.1% aqueous formic acid and acetonitrile, linear gradient 10% to 90% acetonitrile.
Molecule `CCC1(c2ccc(C)cc2CN(C(=O)c2cn(C)nc2C(F)F)C2CC2)CC1` [Example 1.092] displayed a logP of 4.19. `CCC1(c2cccc(F)c2CN(C(=O)c2cn(C)nc2C(F)F)C2CC2)CC1` [Example 1.102]: the logP was found to be 3.74. Molecule `CCC1(c2cc(C)ccc2CN(C(=S)c2cn(C)nc2C(F)F)C2CC2)CC1` [Example 1.076] showed a logP of 4.67. `Cc1nn(C)c(F)c1C(=S)N(Cc1ccc(F)cc1C1(C)CC1)C1CC1` [Example 1.015] returned a logP of 4.18.

Turning to `CCC1(c2ccc(Cl)cc2CN(C(=O)c2cn(C)nc2C(F)F)C2CC2)CC1` [Example 1.086], the logP came out at 4.18.

Molecule `CCOC1(c2ccc(C)cc2CN(C(=O)c2nn(C)cc2C(F)F)C2CC2)CC1` [Example 1.130] had a logP of 3.94. On the same count and under the same terms, for `Cn1cc(C(=S)N(Cc2cccc(F)c2C2(C)CC2)C2CC2)c(C(F)F)n1` [Example 1.006] the value was 4.04; for `Cc1ccc(C2(C)CC2)c(CN(C(=O)c2c(C(F)F)nn(C)c2C)C2CC2)c1` [Example 1.036], 3.99; for `CCc1cc(C(=O)N(Cc2cc(C)ccc2C2(C)CC2)C2CC2)c(C)o1` [Example 1.051], 5.25. Molecule `CCC1(c2cc(C)c(F)cc2CN(C(=O)c2cc(C)oc2C(F)F)C2CC2)CC1` [Example 1.080] registered a logP of 5.25. Consider `Cn1cc(C(=O)N(Cc2ccccc2C2(C(F)F)CC2)C2CC2)c(C(F)F)n1` [Example 1.132], for which the logP worked out at 3.00. `Cc1ccc(C2(C)CC2)c(CN(C(=S)c2cn(C)nc2C(F)F)C2CC2)c1` [Example 1.052] displayed a lipophilicity (logP) of 4.39. The molecule `CCC1(c2ccc(Cl)cc2CN(C(=O)c2c(C)nn(C)c2F)C2CC2)CC1` [Example 1.087] displayed a logP of 4.23. Molecule `CCC1(c2cc(Cl)ccc2CN(C(=O)c2cc(C)oc2C)C2CC2)CC1` [Example 1.071] returned a logP of 5.34. `Cc1ccc(C2(CC(C)C)CC2)c(CN(C(=O)c2c(C)nn(C)c2F)C2CC2)c1` [Example 1.144] displayed a logP of 4.97.

As to `Cc1nn(C)c(F)c1C(=O)N(Cc1ccc(Cl)cc1C1(CC(C)C)CC1)C1CC1` [Example 1.143], the logP was determined as 5.08. On the same count and under the same terms, for `Cc1cc(C(=O)N(Cc2ccc(-c3ccccc3)cc2C2(C)CC2)C2CC2)c(C)o1` [Example 1.021] the value was 5.48. `Cc1ccc(C2(C)CC2)c(CN(C(=O)c2c(C(F)F)nn(C)c2C(F)F)C2CC2)c1` [Example 1.035] registered a logP of 4.36.

In the case of `CCC1(c2cc(Cl)ccc2CN(C(=O)c2cn(C)nc2C(F)F)C2CC2)CC1` [Example 1.070], the logP is 4.25.

Regarding `CCC1(c2ccc(C(F)(F)F)cc2CN(C(=O)c2cn(C)nc2C(F)F)C2CC2)CC1` [Example 1.085], the logP came out at 4.27. This logP and that of the molecule before are within 0.2 log units of each other. Same read-out and setting: the value for `Cn1cc(C(=O)N(Cc2cccc(F)c2C2(C)CC2)C2CC2)c(C(F)F)n1` [Example 1.003] was 3.46. Still for that read-out and setting: for `CCCC1(c2ccc(C)cc2CN(C(=O)c2cc(C)oc2C)C2CC2)CC1` [Example 1.115] the value was 5.62. The same measure, in the same setting: the value for `Cn1cc(C(=O)N(Cc2cccc(Cl)c2C2(C)CC2)C2CC2)c(C(F)F)n1` [Example 1.001] was 3.89; that for `Cc1ccc(C2(C)CC2)c(CN(C(=O)c2c(C(F)(F)F)nn(C)c2Cl)C2CC2)c1` [Example 1.041] was 4.82; that for `CCC1(c2cc(C)c(F)cc2CN(C(=O)c2cn(C)nc2C(F)F)C2CC2)CC1` [Example 1.081] was 4.24. For the molecule `CCC1(c2ccc(C)cc2CN(C(=S)c2cn(C)nc2C(F)F)C2CC2)CC1` [Example 1.099], the logP is on record as 4.69. Regarding `Cc1ccc(CN(C(=O)c2c(C)nn(C)c2F)C2CC2)c(C2(C)CC2)c1` [Example 1.016], the logP was found to be 3.71. As for `COc1ccc(CN(C(=O)c2cn(C)nc2C(F)F)C2CC2)c(C2(C)CC2)c1` [Example 1.017], the logP was 3.31. In turn, `Cc1nn(C)c(Cl)c1C(=O)N(Cc1cc(Br)ccc1C1(C)CC1)C1CC1` [Example 1.023] had a logP of 4.24. For `Cc1cc(C(=O)N(Cc2cc(Br)ccc2C2(C)CC2)C2CC2)c(C)o1` [Example 1.028], the logP is 5.08. As for `CCC1(c2cc(C)c(F)cc2CN(C(=O)c2cc(C)oc2C)C2CC2)CC1` [Example 1.083], the logP stood at 5.34. On the same count and under the same terms, the value for `Cc1ccc(C2(C3CC3)CC2)c(CN(C(=O)c2cn(C)nc2C(F)F)C2CC2)c1` [Example 1.107] was 4.11; that for `Cn1cc(C(=O)N(Cc2cc(F)ccc2C2(C)CC2)C2CC2)c(C(F)F)n1` [Example 1.032] was 3.51; that for `Cc1ccc(C2(C(C)C)CC2)c(CN(C(=O)c2c(C)nn(C)c2F)C2CC2)c1` [Example 1.122] was 4.54. On the same count and under the same terms, for `CCC1(c2cc(C)ccc2CN(C(=O)c2cn(C)nc2C(F)F)C2CC2)CC1` [Example 1.074] the value was 4.16.

`Cc1ccc(C2(C)CC2)c(CN(C(=O)c2nn(C)nc2C(F)F)C2CC2)c1` [Example 1.050]: the logP came out at 4.37. `C#CC1(c2ccc(Cl)cc2CN(C(=O)c2cn(C)nc2C(F)F)C2CC2)CC1` [Example 1.063] displayed a logP of 3.39. `CCC1(c2cc(C)ccc2CN(C(=O)c2c(C)nn(C)c2F)C2CC2)CC1` [Example 1.075] had a logP of 4.11. `Cc1ccc(C2(C)CC2)c(CN(C(=O)c2ccoc2C(F)F)C2CC2)c1` [Example 1.043] registered a logP of 4.35. Molecule `Cc1ccc(C2(C(F)F)CC2)c(CN(C(=S)c2cn(C)nc2C(F)F)C2CC2)c1` [Example 1.140] came in with a logP of 3.76.

On to `CCCC1(c2cc(Cl)ccc2CN(C(=O)c2cc(C)oc2C(F)F)C2CC2)CC1` [Example 1.111], for which the logP was determined as 5.78.

Take `Cc1nn(C)c(F)c1C(=O)N(Cc1cc(Cl)ccc1C1(C(F)F)CC1)C1CC1` [Example 1.136]: the logP was 3.33. For `Cc1ccc(C2(C)CC2)c(CN(C(=O)c2c(C(F)(F)F)nn(C)c2F)C2CC2)c1` [Example 1.038], the logP came out at 4.61. `Cn1cc(C(=O)N(Cc2ccc(Cl)cc2C2(C)CC2)C2CC2)c(C(F)F)n1` [Example 1.010] yielded a logP of 3.96. The molecule `Cc1nn(C)cc1C(=S)N(Cc1cccc(F)c1C1(C)CC1)C1CC1` [Example 1.005] gave a logP of 3.64. Still for that read-out and setting: for `Cc1ccc(C2(C(F)F)CC2)c(CN(C(=S)c2c(C)nn(C)c2F)C2CC2)c1` [Example 1.141] the value was 3.81.

As for `Cn1cc(C(=O)N(Cc2cc(F)c(F)cc2C2(C)CC2)C2CC2)c(C(F)F)n1` [Example 1.019], the logP was 3.68.

The molecule `Cc1ccc(C2(C(C)C)CC2)c(CN(C(=O)c2c(C)nn(C)c2Cl)C2CC2)c1` [Example 1.119] returned a logP of 4.80. In turn, `CCC1(c2cccc(F)c2CN(C(=O)c2c(C)nn(C)c2F)C2CC2)CC1` [Example 1.103] showed a log partition coefficient (logP) of 3.63. For `Cc1nn(C)c(F)c1C(=O)N(Cc1ccc(F)cc1C1(C)CC1)C1CC1` [Example 1.014], the logP is on record as 3.46. The molecule `Cc1cc(C(=O)N(Cc2c(C3(C)CC3)ccc(C)c2F)C2CC2)c(C)o1` [Example 1.055] displayed a logP of 5.08.

For the molecule `CCC1(c2cc(C)c(F)cc2CN(C(=O)c2c(C)nn(C)c2Cl)C2CC2)CC1` [Example 1.078], the logP is reported as 4.49. `Cn1cc(C(=O)N(Cc2cc(F)ccc2C2(C(F)F)CC2)C2CC2)c(C(F)F)n1` [Example 1.137] returned a logP of 3.09. Same read-out and setting: the value for `Cn1cc(C(=O)N(Cc2cc(Cl)ccc2C2(C(F)F)CC2)C2CC2)c(C(F)F)n1` [Example 1.135] was 3.37; that for `Cn1cc(C(F)F)c(C(=O)N(Cc2cc(Br)ccc2C2(C)CC2)C2CC2)n1` [Example 1.025] was 4.39. On the same count and under the same terms, for `Cn1cc(C(=S)N(Cc2cc(Cl)ccc2C2(C)CC2)C2CC2)c(C(F)F)n1` [Example 1.031] the value was 4.37.

On to `Cn1nc(C(=O)N(Cc2ccc(Cl)cc2C2(C)CC2)C2CC2)c(C(F)F)n1` [Example 1.009], for which the logP is listed as 4.54. In turn, `CCC1(c2ccc(C)cc2CN(C(=O)c2c(C)nn(C)c2Cl)C2CC2)CC1` [Example 1.096] registered a logP of 4.36. This logP and that of the molecule before are within 0.2 log units of each other.

In turn, `Cc1cc(C(=O)N(Cc2cccc(Cl)c2C2(C)CC2)C2CC2)c(C)o1` [Example 1.002] displayed a logP of 4.92. Still for that read-out and setting: the value for `CCOC1(c2ccc(C)cc2CN(C(=O)c2c(C)nn(C)c2Cl)C2CC2)CC1` [Example 1.131] was 3.71.

The data set is the same for the next values; noted with them: Table 2, compounds of formula (I); HPLC C 18, 40° C., 0.1% aqueous formic acid and acetonitrile.
Turning to `Cn1cc(C(=O)N(Cc2cccc3c2C2(CCC3)CC2(Cl)Cl)C2CC2)c(C(F)F)n1` (racemic) [Ia.04], the logP was found to be 4.06.

`Cn1cc(C(=S)N(Cc2cccc3c2C2(CCC3)CC2)C2CC2)c(C(F)F)n1` [Ia.03] had a logP of 4.37.

Take `Cn1cc(C(=O)N(Cc2cccc3c2C2(CC3)CC2)C2CC2)c(C(F)F)n1` [Ia.01]: the logP was determined as 3.51.
